{"source": "patent US8629173B2", "about": "“Solid forms comprising (+)-2-[1-(3-ethoxy-4-methoxyphenyl)-2-methylsulfonylethyl]-4-acetylaminoisoindoline-1,3-dione, compositions thereof, and uses thereof” (Celgene Corporation, priority 2002, dated 2014)", "key": {"[1]": {"target": "T1, PDE6 from bovine retinal rod outer segments (Bos taurus, UniProt P11541+P23439)", "T1 construct": "PDE6 from bovine retinal rod outer segments; from tissue; host or cells: bovine retinal rod outer segments", "T1 sequence (P11541 2-856 limits assumed)": "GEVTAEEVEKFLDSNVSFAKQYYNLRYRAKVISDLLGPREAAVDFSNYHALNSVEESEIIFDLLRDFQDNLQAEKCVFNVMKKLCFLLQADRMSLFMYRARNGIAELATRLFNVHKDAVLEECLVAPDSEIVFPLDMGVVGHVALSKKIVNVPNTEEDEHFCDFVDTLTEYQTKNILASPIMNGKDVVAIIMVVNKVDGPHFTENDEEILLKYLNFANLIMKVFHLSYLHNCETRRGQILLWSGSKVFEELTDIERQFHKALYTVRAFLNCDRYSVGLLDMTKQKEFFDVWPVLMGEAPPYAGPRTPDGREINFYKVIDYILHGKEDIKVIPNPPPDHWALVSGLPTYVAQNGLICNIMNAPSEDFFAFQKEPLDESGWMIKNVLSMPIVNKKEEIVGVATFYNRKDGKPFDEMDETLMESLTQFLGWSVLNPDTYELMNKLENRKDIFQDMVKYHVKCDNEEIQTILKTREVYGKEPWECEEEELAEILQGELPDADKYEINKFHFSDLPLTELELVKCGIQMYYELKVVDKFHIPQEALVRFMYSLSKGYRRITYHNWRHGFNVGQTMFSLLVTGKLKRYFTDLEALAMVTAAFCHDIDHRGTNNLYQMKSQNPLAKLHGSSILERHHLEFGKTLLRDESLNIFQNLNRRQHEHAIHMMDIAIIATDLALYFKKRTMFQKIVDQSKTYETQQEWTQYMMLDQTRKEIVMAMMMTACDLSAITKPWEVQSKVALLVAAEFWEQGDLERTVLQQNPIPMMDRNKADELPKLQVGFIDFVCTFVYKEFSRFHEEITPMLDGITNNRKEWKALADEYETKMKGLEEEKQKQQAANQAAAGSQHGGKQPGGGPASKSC", "T1 sequence (P23439 2-850 limits assumed)": "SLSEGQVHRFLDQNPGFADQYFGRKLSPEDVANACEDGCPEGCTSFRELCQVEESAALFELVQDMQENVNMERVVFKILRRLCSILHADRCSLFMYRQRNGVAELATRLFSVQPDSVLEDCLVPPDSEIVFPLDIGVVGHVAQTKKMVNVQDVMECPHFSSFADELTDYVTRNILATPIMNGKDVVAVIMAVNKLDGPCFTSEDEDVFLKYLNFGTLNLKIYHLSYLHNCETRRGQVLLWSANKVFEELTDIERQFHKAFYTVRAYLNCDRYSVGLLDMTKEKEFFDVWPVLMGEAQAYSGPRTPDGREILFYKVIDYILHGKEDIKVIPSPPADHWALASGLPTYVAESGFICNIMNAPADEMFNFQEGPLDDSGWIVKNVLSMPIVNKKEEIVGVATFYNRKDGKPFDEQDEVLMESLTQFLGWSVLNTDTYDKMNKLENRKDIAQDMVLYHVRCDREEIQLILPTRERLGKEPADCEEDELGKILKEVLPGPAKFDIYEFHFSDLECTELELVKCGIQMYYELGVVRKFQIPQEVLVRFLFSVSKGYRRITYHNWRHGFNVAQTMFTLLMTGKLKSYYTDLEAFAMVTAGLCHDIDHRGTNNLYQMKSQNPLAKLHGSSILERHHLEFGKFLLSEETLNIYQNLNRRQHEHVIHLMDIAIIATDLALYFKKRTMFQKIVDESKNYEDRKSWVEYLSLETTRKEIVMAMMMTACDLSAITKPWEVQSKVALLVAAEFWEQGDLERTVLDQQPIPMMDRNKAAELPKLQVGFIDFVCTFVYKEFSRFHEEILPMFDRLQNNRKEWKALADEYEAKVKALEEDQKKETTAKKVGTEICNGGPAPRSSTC", "assay": "PDE6 enzyme assay", "assay_type": "biochemical"}, "[2]": {"system": "IL-1β-induced TNF-α production from human PBMC", "assay": "IL-1β-induced TNF-α production from human PBMC", "assay_type": "cell-based", "settings": "18 h, read-out: IL-β-induced TNF-α IC50", "procedure": "During the course of inflammatory diseases, TNF-α production is often stimulated by the cytokine IL-1β, rather than by bacterially derived LPS. Compounds were tested for the ability to inhibit IL-1β-induced TNF-α production from human PBMC as described above for LPS-induced TNF-α production, except that the PBMC were isolated from source leukocyte units (Sera-Tec Biologicals, North Brunswick, N.J., USA) by centrifugation on Ficoll-Paque Plus (Amersham Pharmacia, Piscataway, N.J., USA), plated in 96-well tissue culture plates at 3×10^5 cells/well in RPMI-1640 medium (BioWhittaker, Walkersville, Md., USA) containing 10% heat-inactivated fetal bovine serum (Hyclone), 2 mM L-glutamine, 100 U/ml penicillin, and […] (complete medium), pretreated with compounds at 10, 2, 0.4, 0.08, 0.016, 0.0032, 0.00064, and 0 μM in duplicate at a final DMSO concentration of 0.1% at 37° C. in a humidified incubator at 5% CO2 for one hour, then stimulated with 50 ng/ml recombinant human IL-1β (Endogen) for 18 hours."}}, "data": [{"smiles": "CCOc1cc(C(CS(C)(=O)=O)N2C(=O)c3cccc(NC(C)=O)c3C2=O)ccc1OC", "note": "(single isomer, unassigned; (+)) [Compound A, (+)-2-[1-(3-ethoxy-4-methoxyphenyl)-2-methylsulfonylethyl]-4-acetylaminoisoindoline-1,3-dione]", "values": [{"measurement": "PDE Specificity Ratio PDE4/PDE6", "setting": "[1]; from Table 1 data", "result": ">40000", "unit": "fold"}, {"measurement": "inhibition at 10 µM", "setting": "[1]; read-out: PDE6 (% inhib at 10 μM)", "result": -6, "unit": "%"}, {"measurement": "IC50", "setting": "[2]", "result": 83, "unit": "nM"}]}]}
